Holding throughout (type): ADME, organism-based
Data set [1] in a line: Half life in Sprague-Dawley rat at 2 mg/kg, iv. Also noted: dose 2 mg/kg, route intravenous. Conditions: in vivo.
The nature of data set [2]: Oral bioavailability in Sprague-Dawley rat at 2 mg/kg. Conditions: in vivo.
A short description of data set [3]: Clearance in Sprague-Dawley rat at 2 mg/kg, iv. The settings on record: in vivo. More on the design: dose 2 mg/kg, route intravenous.
Data set [4] can be described thus: AUC (0 to infinity) in Sprague-Dawley rat at 2 mg/kg, po. More on the design: time infinity, dose 2 mg/kg, route oral. The settings on record: plasma.
Data set [5] can be described thus: Volume of distribution at steady state in Sprague-Dawley rat at 2 mg/kg, iv. Also noted: dose 2 mg/kg, route intravenous. The settings on record: in vivo, read-out: Vdss.

As a reminder, the half-life is the time needed for the level to fall by half in the phase considered. A low value points to fast loss. As a reminder, the bioavailability is the share of a dose that reaches the circulation, judged against a reference dose that is usually intravenous. A lower bioavailability goes with little systemic uptake. In general, clearance refers to a measure of how efficiently the substance is removed, as volume per time. By AUC(0-inf) is commonly meant total exposure, with the tail of the curve extrapolated. Turning to `Cc1nnc(Nc2cc(C(=O)NC3CC3)ccc2Cl)c2cnn(-c3c(F)cccc3F)c12`, in data set [1], the half-life is 2.2 h. The compound also showed a bioavailability in data set [2] of 91%. In data set [3], this compound gave a clearance of 7.83 mL/min/kg. Besides, the area under the curve AUC(0-inf) in data set [4] amounted to 3880 ng·h/mL. In addition, the Vd in data set [5] was 1.4 L/kg.
In the same order, the values of `Cc1ccc(C(=O)NC2CC2)cc1Nc1nncc2c1cnn2-c1c(F)cccc1F` are 2.8 h, 19%, 9.67 mL/min/kg, 671 ng·h/mL and 1.6 L/kg.
For `O=C(NC1CC1)c1ccc(Cl)c(Nc2nncc3c2cnn3-c2c(F)cccc2F)c1`, in data set [1], the half-life was 3.6 h. The compound also displayed a bioavailability in data set [2] of 75%. Also, the clearance in data set [3] was 3.67 mL/min/kg. The AUC(0-inf) in data set [4] came out at 6830 ng·h/mL. Also, the Vd in data set [5] was found to be 1.1 L/kg.
On to `O=C(NC1CC1)c1ccc(Cl)c(Nc2nncc3c2cnn3-c2ccc(F)cc2F)c1`, for which the half-life in data set [1] was 3.5 h. Further, in data set [2], the bioavailability was found to be 53%. In data set [3], the clearance is 2.67 mL/min/kg. This compound also yielded an area under the curve AUC(0-inf) in data set [4] of 6550 ng·h/mL. The Vd in data set [5] stood at 0.89 L/kg.

These data come from ChEMBL document CHEMBL1154963, “Part 2: Structure-activity relationship (SAR) investigations of fused pyrazoles as potent, selective and orally available inhibitors of p38alpha mitogen-activated protein kinase” (Bioorg Med Chem Lett, 2010).
